Patent US9260404B1, “Preparation of ambrox from labdanes of Dysoxylum hongkongense, and the preparation of new diterpenoids from Dysoxylum hongkongense” (National Taiwan University, priority 2014, dated 2016)
Converted amounts (≈) assume the structure as drawn.

How the values were obtained:
[1] = tested on: human laryngeal carcinoma Hep-2; assay: Cytotoxic assay (MTT), Hep-2; assay type: cell-based; conditions: Hep-2, MTT assay
Protocol: (§1) Cytotoxic Assay. Human hepatocellular carcinoma Hep-G2, human colon adenocarcinoma WiDr and human laryngeal carcinoma Hep-2 were used as the targets for research, and an antitumor drug, mitomycin C, was the control. The effective dosage (ED50, μg/mL) of the compounds on the cancer cell cytotoxicity was determined by the well-known cytotoxicity assay (3-(4,5-dimethylthiazol-2-yl)-2,5-diphenyltetrazolium bromide (MTT) assay) in the art.

[2] = tested on: human colon adenocarcinoma WiDr; assay: Cytotoxic assay (MTT), WiDr; assay type: cell-based
Protocol: as §1

[3] = tested on: human hepatocellular carcinoma Hep-G2; assay: Cytotoxic assay (MTT), Hep-G2; assay type: cell-based
Protocol: as §1

HSV-1 (KOS strain) = assay: Anti-HSV-1 plaque reduction assay in Vero cells; assay type: cell-based, Herpes Simplex Virus-1; conditions: for inhibition (in vitro inhibitory activity against the HSV-1 virus): at 10 μM, plaque formation in Vero cells; for inhibition at 10 µM: Human alphaherpesvirus 1, plaque formation in Vero cells, read-out: inhibition (in vitro inhibitory activity against the HSV-1 virus)
Protocol: Anti Herpes Simplex Virus-1 (HSV-1) Assay, Cell Culture and Virus. Vero cells were cultured in minimal essential medium (MEM; GIBCO®, Grand Island, N.Y.) supplemented with 10% fetal calf serum (FCS; Hyclone™, Logan, Utah), 100 U/mL penicillin and 100 μg/mL streptomycin and incubated at 37° C. in a 5% CO2 incubator. To prepare a stock of HSV-1 (KOS strain, VR-1493, ATCC), Vero cells were infected with HSV-1 at a multiplicity of infection points on three plaque forming units (PFU)/cell and harvested at 24 hours postinfection and centrifuged at 1500×g (Centrifuge 5810 R, Eppendorf) at 4° C. for 20 minutes. The supernatant was collected and stored at −70° C. for use.
Plaque Reduction Assay. The bioassay followed a procedure described previously (Kuo et al., Samarangenin B from Limonium sinense Suppresses Herpes Simplex Virus Type 1 Replication in Vero Cells by Regulation of Viral Macromolecular Synthesis. Antimicrob. Agents Chemother., 2002, 46(9): 2854-2864.). […] The viruses were adsorbed for 1 hour at 37° C. and 1% methylcellulose was added to each well. After 5 days, the virus plaques formed in Vero cells were counted by crystal violet staining. The activities of various compounds and acyclovir for inhibition of plaque formation were calculated.

[4] = tested on: elastase release by human neutrophils; assay: Elastase release by human neutrophils in response to FMLP/CB; assay type: cell-based; conditions: 10 μg/mL
Protocol: (§2) Anti-inflammatory Assays, Inhibitory Effect on Superpxide Anion Generation and Elastase Release by Human Neutrophils. Neutrophils were obtained by means of dextran sedimentation and Ficoll centrifugation. Superoxide generation and elastase release were carried out according to a procedure described previously (Hwang et al., Inhibition of Superoxide Anion and Elastase Release in Human Neutrophils by 3′-Isopropoxychalcone via a cAMP-dependent Pathway. Br. J. Pharmacol., 2006, 148(1): 78-87.; and Liaw et al., Frajunolides E-K, Briarane Diterpenes from Junceella fragilis. J. Nat. Prod., 2008, 71(9): 1551-1556.). Superoxide anion production was assayed by monitoring the superoxide dismutase-inhibitable reduction of ferricytochrome c. Elastase release experiments were performed using MeO-Suc-Ala-Ala-Pro-Val p-nitroanilide as the elastase substrate.

[5] = tested on: superoxide anion generation by human neutrophils; assay: Superoxide anion generation by human neutrophils in response to FMLP/CB; assay type: cell-based; conditions: 10 μg/mL
Protocol: as §2

Question: For `C=C[C@@]1(C)O[C@]2(C)CC[C@H]3C(C)(C)C(=O)CC[C@]3(C)[C@H]2C[C@H]1O` [Compound 8, Dysongensin B], which “ED50 cytotoxic activity against Hep-2 cells” value [1] is on record?
Answer: Its value is 16.07 ± 0.17 µg/mL (≈ 50.1 µM).

Question: What about the “ED50 cytotoxic activity against WiDr cells” value [2] of the same compound?
Answer: The value was 19.13 ± 0.56 µg/mL (≈ 59.7 µM).

Question: And the “ED50 cytotoxic activity against Hep-G2 cells” value [3]?
Answer: Its value is 18.05 ± 0.58 µg/mL (≈ 56.3 µM).

Question: How did the “inhibition (in vitro inhibitory activity against the HSV-1 virus)” value (HSV-1 (KOS strain)) turn out when `C=C[C@@](C)(O)[C@@H]1C[C@@H]2[C@@]3(C)CCC(=O)C(C)(C)[C@@H]3CC[C@@]2(C)O1` [Compound 9, Dysongensin C] was run?
Answer: The value was 32.7±4.0%.

Question: For `C=C[C@@](C)(O)[C@H]1C[C@@H]2[C@@]3(C)CCC(=O)C(C)(C)[C@@H]3CC[C@@]2(C)O1` [Compound 10, Dysongensin D], which inhibition at 10 µM (HSV-1 (KOS strain)) is on record?
Answer: The inhibition at 10 µM was 25.2 ± 6%.

Question: Which “anti-inflammatory effect on elastase release” value [4] does the source give for `C=C[C@](C)(O)[C@H]1C[C@@H]2[C@@]3(C)CCC(=O)C(C)(C)[C@@H]3CC[C@@]2(C)O1` [Compound 11, Dysongensin E] here?
Answer: Its value is 31.29±6.67%.

Question: `C=C[C@](C)(O)[C@H]1C[C@@H]2[C@@]3(C)CC[C@H](O)C(C)(C)[C@@H]3CC[C@@]2(C)O1` [Compound 12, Dysongensin F] was tested. Which “ED50 cytotoxic activity against Hep-2 cells” value [1] did it give?
Answer: The value was 17.92 ± 0.25 µg/mL (≈ 55.6 µM).

Question: `C=C[C@@](O)(CO)[C@H]1C[C@@H]2[C@@]3(C)CCC4C[C@@]4(C)[C@@H]3CC[C@@]2(C)O1` (stereo partly drawn) [Compound 13, Dysongensin G] was tested. Which “ED50 cytotoxic activity against Hep-G2 cells” value [3] did it give?
Answer: The value was 37.78 ± 0.81 µg/mL (≈ 118 µM).

Question: What about the “inhibition (in vitro inhibitory activity against the HSV-1 virus)” value (HSV-1 (KOS strain)) of the same compound?
Answer: The value was 29.3±9.0%.

Question: Which results are given for `C=C[C@](O)(CO)[C@@H]1C[C@@H]2[C@@]3(C)CCC4C[C@@]4(C)[C@@H]3CC[C@@]2(C)O1` (stereo partly drawn) [Compound 14, Dysongensin H]?
Answer: anti-inflammatory effect on superoxide anion generation [5]: 25.33±4.04%; ED50 cytotoxic activity against WiDr cells [2]: 15.45 ± 0.73 µg/mL (≈ 48.2 µM); ED50 cytotoxic activity against Hep-G2 cells [3]: 16.86 ± 0.85 µg/mL (≈ 52.6 µM); inhibition at 10 µM (HSV-1 (KOS strain)): 29.7 ± 6%

Question: With Dysongensin A [Compound 1] as the compound, how does the “ED50 cytotoxic activity against WiDr cells” value [2] read?
Answer: The value was 18.67 ± 0.56 µg/mL.

Question: What about the “ED50 cytotoxic activity against Hep-G2 cells” value [3] of the same compound?
Answer: Its value is 20.34 ± 0.58 µg/mL.
